In this test the test system is E. coli HB101/pPAP5 (agglutination of human erythrocytes). Put plainly: Inhibition of haemagglutination (HA inhibition) of human erythrocytes by E. coli. The class given is cell-based. The conditions noted are these: for IC50: Escherichia coli, Erythrocyte, inhibition of agglutination of human erythrocytes by E. coli; for Relative potency (%): in relation to compound 1, calculated from IC50; for ΔΔG^o: ΔΔG°=RTlnKrel, Krel = IC50 ratio to compound 1; for Inhib. power (%): in relation to compound 1 (IC50 0.20 mM); for ΔΔG (kJmol^-1): relative to compound 1 (IC50 0.20 mM). From the text: Bacterial strain HB101/pPAPS. Plasmid pPAP5 carries the pap gene cluster isolated from the uropathogenic E.coli isolate J96. The clone produces P pill that mediate agglutination of human erythrocytes by binding to the galabiose-containing P-blood group antigens present on the erythrocyte surface. The galabiose binding property resides in the PapG gene product which is present at the tip of the P pilus as a minor component.
HA of a 1% human P erythrocyte suspension in phosphate-buffered saline was determined for agar-grown organisms by suspending the bacteria to a Klett of 490 (ca 1×10^9 bacteria/mL). A sample of the bacterial suspension (25 μL) was serially diluted in microtiter plates containing 25 μL PBS in each well. An equal volume of erythrocyte suspension was added and after mixing, the plates were incubated at 4° C. for 18 h. The HA endpoint was defined as the dilution in the last well before erythrocyte buttons were formed. The titer was expressed as the reciprocal of the endpoint dilution.
The HA titer of the strains to be tested was determined as described above and the cells were diluted so that each strain gave a titer of 64. The concentration of each of the analogues 1-25 was adjusted to 100 mM and 25 μL of each analogue was serially diluted in microtiter plates containing 25 μL of PBS in each well. The bacterial suspension (25 μL; HA titer=64) was then added to each well. After incubation for 30 min at room temperature, human erythrocytes (1% suspension) were added by gentle mixing and the plates were incubated at 4° C. overnight. The endpoint was defined as the greatest dilution of the analogue (minimal concentration) that gave a 50% inhibition of the HA (IC50).
The IC50 -values given in the tables are mean values from 3 consecutive runs. The ratio of the IC50 -value for an inhibitor and compound 1 is the relative equilibrium constant, Krel. This value was used for the calculation of the difference free energy values (ΔΔG°) using the expression ΔΔG°=RTlnKrel. It should be stressed that the conclusions made here about the nature of the adhesin receptor is based on the assumption that all the inhibitors have similar over-all confirmations oriented in a similar way in the receptor side and that only one type of galablest-specific receptor is present in the adhesin.

[1] abbreviates: Table 1, mean of 3 consecutive runs.
[2] abbreviates: Table 2, glycoside analogs, mean of 3 runs.

These results are taken from patent US5474986A, “Method for treating galabiose-binding bacteria infections” (priority 1988, dated 1995).

Compound `CO[C@@H]1O[C@H](CO)[C@H](O[C@H]2O[C@H](CO)[C@H](O)[C@H](O)[C@H]2O)C[C@H]1O` [Compound 3] displayed a half-maximal inhibitory concentration (IC50) under setting [1] of 1 mM. Further, where the note is “Table 1”, the “Relative potency (%)” value was 19% and the “ΔΔG^o” value came out at 3.9 kJ/mol.
Taken in the same sequence, the figures for `CO[C@@H]1O[C@H](CO)[C@H](O[C@H]2O[C@H](CO)C[C@H](O)[C@H]2O)[C@H](O)[C@H]1O` [Compound 7] were 10 mM, 1.9% and 9.2 kJ/mol.
`CO[C@H]1O[C@H](CO)[C@H](O[C@H]2O[C@H](CO)[C@H](O)[C@H](O)[C@H]2O)[C@H](O)[C@H]1O` [Compound 23] returned a 50% inhibitory concentration (IC50) under setting [2] of 2.1 mM. For the same compound, under “Table 2”, the “Inhib. power (%)” value is 9.0% and the “ΔΔG (kJmol^-1)” value is 5.6 kJmol^-1.
As to `C[Si](C)(C)CCO[C@@H]1O[C@H](CO)[C@H](O[C@H]2O[C@H](CO)[C@H](O)[C@H](O)[C@H]2O)[C@H](O)[C@H]1O` [Compound 20], 0.049 mM corresponded to half-maximal inhibition under setting [2] (IC50). Under “Table 2”, the “Inhib. power (%)” value amounted to 400% and the “ΔΔG (kJmol^-1)” value is -3.2 kJmol^-1.
Taken in the same sequence, the figures for `CCO[C@@H]1O[C@H](CO)[C@H](O[C@H]2O[C@H](CO)[C@H](O)[C@H](O)[C@H]2O)[C@H](O)[C@H]1O` [Compound 18] were 0.13 mM, 150% and -0.9 kJmol^-1.
